Patent US20240174690A1, “ANNULATED 2-AMINO-3-CYANO THIOPHENES AND DERIVATIVES FOR THE TREATMENT OF CANCER” (BOEHRINGER INGELHEIM INTERNATIONAL GMBH, priority 2021, published 2024)

How the values were obtained:
[1] = Metabolic (microsomal) stability assay, human liver microsomes (HLM); type: in vitro ADME; settings: predicted clearance as percent of liver blood flow, 1 μM
Protocol: The metabolic degradation of the test compound is assayed at 37° C. with pooled liver microsomes (mouse (MLM), rat (RLM) or human (HLM)). The final incubation volume of 48 μL pertime point contains TRIS buffer (pH 7.5; 0.1 M), magnesium chloride (6.5 mM), microsomal protein (0.5 mg/mL for mouse/rat, 1 mg/mL for human specimens) and the test compound at a final concentration of 1 μM. Following a short preincubation period at 37° C., the reactions are initiated by addition of 12 μL beta-nicotinamide adenine dinucleotide phosphate, reduced form (NADPH, 10 mM) and terminated by transferring an aliquot into solvent after different time points (0, 5, 15, 30, 60 min). Additionally, the NADPH-independent degradation is monitored in incubations without NADPH, terminated at the last time point by addition of acetonitrile. The quenched incubations are pelleted by centrifugation (4,000 rpm, 15 min). An aliquot of the supernatant is assayed by LC-MS/MS to quantify the concentration of parent compound in the individual samples.
In vitro intrinsic clearance (CLint, in vitro) is calculated from the time course of the disappearance of the test drug during the microsomal incubation. Each plot is fitted to the first-order elimination rate constant as C(t)═C0*exp(−ke*t), where C(t) and C0 are the concentration of unchanged test drug at incubation time t and that at preincubation and ke is the disappearance rate constant of the unchanged drug. Subsequently, CLint in vitro (μL min^−1·amount protein) values are converted to predicted CLint,in vivo (mL min^−1 kg^−1) from incubation parameters according to the equation CLint, in vivo=CLint, in vitro×(incubation volume (ml)/amount protein (mg))×(amount protein (mg)/g liver tissue)×(liver weight/body wt.).
For better across species comparison the predicted clearance is expressed as percent of the liver blood flow [% QH] (mL min^−1·kg^−1) in the individual species. In general, high stability (corresponding to low % QH) of the compounds across species is desired.

KRAS (G12C)::SOS1 = KRAS (G12C)::SOS1 (Homo sapiens (Human), UniProt P01116, C118S/C51S/C80L/G12C); test: KRAS::SOS1 AlphaScreen binding assay, KRAS G12C
From the text: This assay can be used to examine the potency with which compounds according to the invention binding to (mutated) KRAS inhibit the protein-protein interaction between SOS1 and (mutated) KRAS e.g., KRAS WT, KRAS G12C, KRAS G12D, KRAS G12V, KRAS G13D. […] Low IC50 values in this assay setting are indicative of strong inhibition of protein-protein interaction between SOS1 and KRAS:
These assays measure the inhibitory effect of compounds on KRAS mutant protein-protein interactions using the Alpha Screen technology by Perkin Elmer.
The following (mutant) enzyme forms of KRAS and interacting proteins are used in these assays at the given concentrations: • KRAS (G12D) 1-169, N-terminal 6His-tag, C-terminal avi-tag (Xtal BioStructures, Inc.); final assay concentration 10 nM and SOS1 564-1049, N-terminal 229 GST-tag, TEV cleavage site (Viva Biotech Ltd); final assay concentration 5 nM; • KRAS (G12C) 1-169, N-terminal 6His-tag for purification, cleaved off, C-terminal avi-tag, biotinylated, mutations: C51S, C80L, C118S (in house); final assay concentration 7.5 nM and SOS1 564-1049, N-terminal 229 GST-tag, TEV cleavage site (Viva Biotech Ltd); final assay concentration 5 nM; • KRAS (G12V) 1-169, N-terminal 6His-tag for purification, cleaved off, C-terminal avi-tag, biotinylated, TEV cleavage site, mutation: C118S, GDP loaded (in house); final assay concentration 10 nM and SOS1 564-1049, N-terminal 229 GST-tag, TEV cleavage site (Viva Biotech Ltd); final assay concentration 10 nM; • KRAS (G13D) 1-169, N-terminal 6His-tag for purification, cleaved off, C-terminal avi-tag, biotinylated, TEV cleavage site, mutation: C118S, GDP loaded (in house); final assay concentration 10 nM and SOS1 564-1049, N-terminal 229 GST-tag, TEV cleavage site (Viva Biotech Ltd); final assay concentration 10 nM; • KRAS (WT) 1-169, N-terminal 6His-tag for purification, cleaved off, C-terminal avi-tag, biotinylated, TEV cleavage site, mutation: C118S, GDP loaded (in house); final assay concentration 10 nM and SOS1 564-1049, N-terminal 229 GST-tag, TEV cleavage site (Viva Biotech Ltd); final assay concentration 10 nM.
Test compounds dissolved in DMSO are dispensed onto assay plates (Proxiplate 384 PLUS, white, PerkinElmer; 6008289) using an Access Labcyte Workstation with the Labcyte Echo 55×. For the chosen highest assay concentration of 100 μM, 150 nL of compound solution are transferred from a 10 mM DMSO compound stock solution. A series of eleven fivefold dilutions per compound are transferred to the assay plate, compound dilutions are tested in duplicates. DMSO are added as backfill to a total volume of 150 nL.
The assays run on a fully automated robotic system in a darkened room below 100 Lux. To 150 nl of compound dilution 10 μl of a mix including KRAS mutant protein, SOS1 (final assay concentrations see above) and GDP nucleotide (Sigma G7127; final assay concentration 10 μM) in assay buffer (1×PBS, 0.1% BSA, 0.05% Tween 20) are added into columns 1-24.
After 30 minutes incubation time 5 μl of Alpha Screen bead mix in assay buffer are added into columns 1-23. Bead mix consists of AlphaLISA Glutathione Acceptor Beads (PerkinElmer, Cat No AL109) and AlphaScreen Streptavidin Donor Beads (PerkinElmer Cat No 6760002) in assay buffer at a final assay concentration of 10 μg/ml each.
Plates are kept at room temperature in a darkened incubator. After an additional 60 minutes incubation time the signal is measured in a PerkinElmer Envision HTS Multilabel Reader using the AlphaScreen specs from PerkinElmer.
Each plate contains up to 16 wells of a negative control depending on the dilution procedure (platewise or serial) (DMSO instead of test compound; with KRAS mutant::SOS1 GDP mix and bead mix; column 23) and 16 wells of a positive control (DMSO instead of test compound; with KRAS mutant::SOS1 GDP mix w/o bead mix; column 24).
As internal control known inhibitors of KRAS mutant::SOS1 interaction can be measured on each compound plate. […]

Sequence of KRAS (G12C)::SOS1 (P01116 other isoform, or with tags, fused parts or gaps G12C/C51S/C80L/C118S): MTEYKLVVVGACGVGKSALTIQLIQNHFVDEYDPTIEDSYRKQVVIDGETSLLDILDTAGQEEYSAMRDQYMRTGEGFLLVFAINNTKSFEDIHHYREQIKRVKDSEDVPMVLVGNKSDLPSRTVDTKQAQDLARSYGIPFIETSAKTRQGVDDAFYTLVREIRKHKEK

Compound	HLM QH [1]	IC50 (KRAS (G12C)::SOS1)
C[C@H](Oc1cc(N2CCNC2=O)nc(-c2noc3c2CCC[C@@]32CCCc3sc(N)c(C#N)c32)n1)[C@@H]1CCCN1C [II-64]	27%	2 nM
C[C@H](Oc1cc(-n2ccc(C#N)n2)nc(-c2noc3c2CCC[C@@]32CCCc3sc(N)c(C#N)c32)n1)[C@@H]1CCCN1C [II-102]	51%	2 nM
C[C@H](Oc1cc(N2CCNC3(CC3)C2)nc(-c2onc3c2CCC[C@@]32CCCc3sc(N)c(C#N)c32)n1)[C@@H]1CCCN1C [I-5]	<24%	2 nM
C[C@H](Oc1cc(-n2ccnc2Cl)nc(-c2noc3c2CCC[C@@]32CCCc3sc(N)c(C#N)c32)n1)[C@@H]1CCCN1C [II-93]	44%	3 nM
C[C@H](Oc1cc(-n2cnc3cccnc32)nc(-c2noc3c2CCC[C@@]32CCCc3sc(N)c(C#N)c32)n1)[C@@H]1CCCN1C [II-65]	<24%	4 nM
CNC(=O)c1cn(-c2cc(O[C@@H](C)[C@@H]3CCCN3C)nc(-c3noc4c3CCC[C@@]43CCCc4sc(N)c(C#N)c43)n2)nn1 [II-122]	35%	2 nM
C[C@H](Oc1cc(-c2ccn3ncnc3c2)nc(-c2noc3c2CCC[C@@]32CCCc3sc(N)c(C#N)c32)n1)[C@@H]1CCCN1C [II-104]	<24%	2 nM
C[C@H](Oc1cc(N2CCc3cccnc32)nc(-c2noc3c2CCC[C@@]32CCCc3sc(N)c(C#N)c32)n1)[C@@H]1CCCN1C [II-90]	<24%	7 nM
C[C@H](Oc1cc(N2CCN(C)CC2)nc(-c2noc3c2CCC[C@@]32CCCc3sc(N)c(C#N)c32)n1)[C@@H]1CCCN1C [II-55]	<24%	4 nM
C[C@H](Oc1cc(-c2ccn(C3CC3)n2)nc(-c2noc3c2CCC[C@@]32CCCc3sc(N)c(C#N)c32)n1)[C@@H]1CCCN1C [II-98]	<24%	2 nM
C[C@H](Oc1cc(-c2cnsc2)nc(-c2noc3c2CCC[C@@]32CCCc3sc(N)c(C#N)c32)n1)[C@@H]1CCCN1C [II-111]	<24%	2 nM
CC(=O)N1CC=C(c2cc(O[C@@H](C)[C@@H]3CCCN3C)nc(-c3noc4c3CCC[C@@]43CCCc4sc(N)c(C#N)c43)n2)CC1 [II-81]	<24%	3 nM
C[C@H](Oc1cc(-c2ccn(C3COC3)n2)nc(-c2noc3c2CCC[C@@]32CCCc3sc(N)c(C#N)c32)n1)[C@@H]1CCCN1C [II-109]	<24%	2 nM
COCc1cn(-c2cc(O[C@@H](C)[C@@H]3CCCN3C)nc(-c3noc4c3CCC[C@@]43CCCc4sc(N)c(C#N)c43)n2)nn1 [II-121]	39%	2 nM
C[C@H](Oc1cc(N2C[C@H](C)NC3(CC3)C2)nc(-c2onc3c2CCC[C@@]32CCCc3sc(N)c(C#N)c32)n1)[C@@H]1CCCN1C [I-8]	<24%	4 nM
C[C@H](Oc1cc(N2CCCC3(COC3)C2)nc(-c2noc3c2CCC[C@@]32CCCc3sc(N)c(C#N)c32)n1)[C@@H]1CCCN1C [II-72]	41%	2 nM

Compound	HLM QH [1]	IC50 (KRAS (G12C)::SOS1)
Cc1cn(C)nc1-c1cc(O[C@@H](C)[C@@H]2CCCN2C)nc(-c2noc3c2CCC[C@@]32CCCc3sc(N)c(C#N)c32)n1 [II-68]	<24%	2 nM
C[C@H](Oc1cc(-n2ccnc2)nc(-c2noc3c2CCC[C@@]32CCCc3sc(N)c(C#N)c32)n1)[C@@H]1CCCN1C [II-69]	<24%	2 nM
C[C@H](Oc1cc(-n2ccncc2=O)nc(-c2noc3c2CCC[C@@]32CCCc3sc(N)c(C#N)c32)n1)[C@@H]1CCCN1C [II-116]	75%	2 nM
C[C@H](Oc1cc(N2CCNC[C@@]23CCOC3)nc(-c2noc3c2CCC[C@@]32CCCc3sc(N)c(C#N)c32)n1)[C@@H]1CCCN1C [II-51]	37%	4 nM
C[C@H](Oc1cc(-c2ccn(-c3ccsc3)n2)nc(-c2noc3c2CCC[C@@]32CCCc3sc(N)c(C#N)c32)n1)[C@@H]1CCCN1C [II-84]	<24%	3 nM
C[C@H](O)Cn1ccc(-c2cc(O[C@@H](C)[C@@H]3CCCN3C)nc(-c3noc4c3CCC[C@@]43CCCc4sc(N)c(C#N)c43)n2)n1 [II-112]	<24%	1 nM
C[C@H](Oc1cc(N2CCOC3(CC3)C2)nc(-c2noc3c2CCC[C@@]32CCCc3sc(N)c(C#N)c32)n1)[C@@H]1CCCN1C [II-61]	<24%	2 nM
C[C@H](Oc1cc(N2CCN(C)C2=O)nc(-c2noc3c2CCC[C@@]32CCCc3sc(N)c(C#N)c32)n1)[C@@H]1CCCN1C [II-75]	38%	2 nM
C[C@H]1CN(C)CCCN1c1cc(N2CCN(C)CC2)nc(-c2onc3c2CCC[C@@]32CCCc3sc(N)c(C#N)c32)n1 [I-7]	<24%	23 nM
C[C@H](Oc1cc(N2CCNC[C@]23CCOC3)nc(-c2noc3c2CCC[C@@]32CCCc3sc(N)c(C#N)c32)n1)[C@@H]1CCCN1C [II-50]	52%	2 nM
C[C@H](Oc1cc(-c2cncs2)nc(-c2noc3c2CCC[C@@]32CCCc3sc(N)c(C#N)c32)n1)[C@@H]1CCCN1C [II-80]	30%	7 nM
C[C@H](Oc1cc(-c2cn(C3CCOCC3)nn2)nc(-c2noc3c2CCC[C@@]32CCCc3sc(N)c(C#N)c32)n1)[C@@H]1CCCN1C [II-115]	<24%	8 nM
C[C@H](Oc1cc(N2CCCC2=O)nc(-c2noc3c2CCC[C@@]32CCCc3sc(N)c(C#N)c32)n1)[C@@H]1CCCN1C [II-73]	53%	3 nM
C[C@H](Oc1cc(-n2cncc3ccnc2-3)nc(-c2noc3c2CCC[C@@]32CCCc3sc(N)c(C#N)c32)n1)[C@@H]1CCCN1C [II-105]		2 nM
C[C@H](Oc1cc(-n2cc3c(n2)CCNC3)nc(-c2noc3c2CCC[C@@]32CCCc3sc(N)c(C#N)c32)n1)[C@@H]1CCCN1C [II-53]	46%	
